Assay results taken from US11052098B2, “Composition containing araloside for external application to skin” (Amorepacific Corporation, priority 2015, dated 2021).

Tests used:
[1] = tested on: Reactive Oxygen Species (ROS); assay: Inhibitory effect on reactive oxygen species (ROS) production in fine dust-stimulated keratinocytes (DCF-DA fluorescence); format: cell-based; conditions: human keratinocytes; sample 50 ppm for 2 hours, then treated with 100 ppm of fine dust; vehicle control = 100, fine dust only = 384
Experimental: 5×10^4 Keratinocytes isolated from human epidermal tissue were added to each well of a 24-well plate and allowed to adhere for 24 hours. Then, […] and araloside X were treated at 50 ppm, respectively. At this time, for comparison, a control group (untreated group) was not treated with araloside V, araloside VII and araloside X, and a positive control group was treated with a known antioxidant ascorbic acid. After 2 hours, the culture solution was removed, and then 100 μl of phosphate buffered saline (PBS) containing 100 ppm of fine dust was added to each well. Then, the amount of active oxygen species increased by fine dust stimulation was quantified. The amount of ROS was quantified with reference to Tan's method of measuring the fluorescence of DCF-DA (dichlorofluorescin diacetate) oxidized by ROS (Tan et al., 1998, J. Cell Biol. Vol. 141, pp 1423-1432).

[2] = tested on: keratin 1; assay: Recovery of keratin 1 marker gene expression in fine dust-treated keratinocytes (quantitative real-time PCR); format: cell-based; conditions: Human neonatal epidermal keratinocytes; 100 ppm fine dust 24 hours, then 50 ppm araloside for 5 days; FIG. 1; compared to fine dust only and untreated group
Experimental: (§1) Human neonatal epidermal keratinocytes (HEK; Lonza, NHEK-Neo-Neonatal Normal. Human Epidermal Keratinocytes, Pooled) were dispensed in medium (KBM-gold, Lonza) in a 6-well plate at a density of 1×10^5 cells per well and cultured at 37° C. for 24 hours. 100 ppm of fine dust was treated in the well and subjected to stimulation for 24 hours, which was then treated with medium (KBM-gold, Lonza) containing 50 ppm each of […] and araloside X and incubated at 37° C. for 5 days. Then, RNA was extracted from the HEK cells incubated for 5 days using an RNeasy mini kit (Qiagen), and then a cDNA was synthesized through an RT-PCR process using a Superscript III kit (Invitrogen). To confirm the expression level of keratin 1 and keratin 10 genes, a probe (TaqMan™ fluorogenic probe, Hs00196158_m1, Hs00166289_m1) was used to conduct the quantitative real-time PCR process and observe the expression behavior of keratin 1 and keratin. 10. The control group used an untreated group not treated with fine dust and also not treated with araloside V, araloside VII and araloside X; and fine dust-treated group treated with fine dust but not, treated with araloside V, araloside VII and araloside X.

[3] = tested on: IL8; assay: IL8 protein production in fine dust-stimulated human fibroblasts (ELISA); format: cell-based; conditions: 100 ppm fine dust 24 hours, then sample 50 ppm for 48 hours, culture solution ELISA, fine dust only = 246
Experimental: (§2) Human fibroblasts (PromoCell, Germany) were inoculated in a 6-well plate at a concentration of 1×10^5 cells, and cultured in an incubator (37° C., 5% CO2) for 24 hours. 100 ppm of fine dust was treated in the well and subjected to stimulation for 24 hours, which was then treated with medium containing 50 ppm each of araloside V, araloside VII and araloside X and allowed to react for 48 hours. After completion of the reaction, the culture solution was collected and subjected to ELISA analysis. At this time, α-bisabolol, a substance frequently used as an anti-inflammatory and irritation-mitigating agent, was used as a control group. Measurement of the production amount of IL8 and IL1B proteins was carried out using a ThermoFisher's kit, and experiments were conducted according to the method described in the company's manual.

[4] = tested on: IL1B; assay: IL1B protein production in fine dust-stimulated human fibroblasts (ELISA); format: cell-based; conditions: 100 ppm fine dust 24 hours, then sample 50 ppm for 48 hours, culture solution ELISA, fine dust only = 311
Experimental: as §2

[5] = tested on: MMP-1; assay: MMP-1 inhibitory effect in fine dust- and UVB-treated Hs68 fibroblasts (MMP-1 assay kit); format: cell-based, Human; conditions: 100 ppm fine dust 24 hours, UVB 30 mJ/M^2, then 50 ppm araloside for 48 hours, FIG. 2, compared to fine dust only and untreated group
Experimental: Human neonatal fibroblast HS68 was purchased from Cascade Biologics (Invitrogen, USA) and used. Hs68 was cultured using DMEM medium supplemented with 10% FBS (fetal bovine serum), 50 U/ml of penacillin and 50 μg/ml of streptomycin. Cells were cultured under the conditions of 37° C., 5% CO2. The Hs68 was added to a 12-well plate at a concentration of 7.5×10^4 cells/well and cultured overnight. On the next day, the medium was replaced with FBS-free medium having a fine dust concentration of 100 ppm and cultured for 24 hours. After irradiating with UVB 30 mJ/M^2, the araloside V, araloside VII, and araloside X were treated at a concentration of 50 ppm for 48 hours, respectively. After culture, the medium was collected and the production amount of MMP-1 was measured using an MMP-1 assay kit (GE healthcare). The control group used an untreated group not treated with fine dust and also not treated with araloside V, araloside VII and araloside X; and a fine dust-treated group treated with fine dust but not treated with araloside V, araloside VII and araloside X.

[6] = tested on: keratin 10; assay: Recovery of keratin 10 marker gene expression in fine dust-treated keratinocytes (quantitative real-time PCR); format: cell-based; conditions: Human neonatal epidermal keratinocytes; 100 ppm fine dust 24 hours, then 50 ppm araloside for 5 days; FIG. 1; compared to fine dust only and untreated group
Experimental: as §1

CC1(C)CC[C@]2(C(=O)O[C@@H]3O[C@H](CO)[C@@H](O)[C@H](O)[C@H]3O)CC[C@]3(C)C(=CC[C@@H]4[C@@]5(C)CC[C@H](O[C@@H]6O[C@H](CO)[C@@H](O)[C@H](O[C@@H]7O[C@H](CO)[C@@H](O)[C@H](O[C@@H]8O[C@H](CO)[C@@H](O)[C@H](O)[C@H]8O)[C@H]7O)[C@H]6O[C@@H]6O[C@H](CO)[C@@H](O)[C@H](O)[C@H]6O)C(C)(C)[C@@H]5CC[C@]43C)[C@@H]2C1 [araloside X]
amount of ROS, ratio to control group treated with only vehicle (=100) [1]: 102
expression of keratin 1 gene [2]: a level equal to or higher than that in the untreated group
IL8 (production amount of protein) [3]: 187 pg/mL
IL1B (production amount of protein) [4]: 252 pg/mL
MMP-1 activity (production amount of MMP-1) [5]: to about the level of MMP-1 activity in the untreated (control) group
expression of keratin 10 gene [6]: a level equal to or higher than that in the untreated group

CC1(C)CC[C@]2(C(=O)O[C@@H]3O[C@H](CO)[C@@H](O)[C@H](O)[C@H]3O)CC[C@]3(C)C(=CC[C@@H]4[C@@]5(C)CC[C@H](O[C@H]6O[C@H](CO)[C@@H](O)[C@@H](O[C@@H]7O[C@H](CO)[C@@H](O)[C@H](O)[C@H]7O)[C@H]6O[C@@H]6O[C@H](CO)[C@@H](O)[C@H](O)[C@H]6O)C(C)(C)[C@@H]5CC[C@]43C)[C@@H]2C1 [araloside V]
amount of ROS, ratio to control group treated with only vehicle (=100) [1]: 110
expression of keratin 1 gene [2]: a level equal to or higher than that in the untreated group
IL8 (production amount of protein) [3]: 189 pg/mL
IL1B (production amount of protein) [4]: 243 pg/mL
MMP-1 activity (production amount of MMP-1) [5]: to about the level of MMP-1 activity in the untreated (control) group
expression of keratin 10 gene [6]: a level equal to or higher than that in the untreated group

O=C1O[C@H]([C@@H](O)CO)C(O)=C1O [ascorbic acid, reference compound]
amount of ROS, ratio to control group treated with only vehicle (=100) [1]: 200

CC1(C)CC[C@]2(C(=O)O[C@@H]3O[C@H](CO)[C@@H](O)[C@H](O)[C@H]3O)CC[C@]3(C)C(=CC[C@@H]4[C@@]5(C)CC[C@H](O[C@@H]6O[C@H](CO)[C@@H](O)[C@H](O[C@@H]7O[C@H](CO)[C@@H](O)[C@H](O)[C@H]7O)[C@H]6O[C@@H]6O[C@H](CO)[C@@H](O)[C@H](O)[C@H]6O)[C@@](C)(CO)[C@@H]5CC[C@]43C)[C@@H]2C1 [araloside VII]
amount of ROS, ratio to control group treated with only vehicle (=100) [1]: 105
expression of keratin 1 gene [2]: a level equal to or higher than that in the untreated group
IL8 (production amount of protein) [3]: 184 pg/mL
IL1B (production amount of protein) [4]: 256 pg/mL
MMP-1 activity (production amount of MMP-1) [5]: to about the level of MMP-1 activity in the untreated (control) group
expression of keratin 10 gene [6]: a level equal to or higher than that in the untreated group

α-bisabolol [reference compound]
IL8 (production amount of protein) [3]: 180 pg/mL
IL1B (production amount of protein) [4]: 214 pg/mL
